Laboratory results from US9733254B2, “Methods and apparatus for the in vitro modelling of drug administration” (THE UNIVERSITY OF BATH, priority 2012, dated 2017).

Experiments:
[1] = Release of excipient from the simulated injection site, HPLC of bath aliquots; format: in vitro ADME; conditions: excipient of generic insulin formulation, 0.5 ml injected; buffer in the cassette
Protocol: Shortly after injection, the protein solubility level decreased as indicated by the drop in % T. As the environment within the cassette equilibrated with the surrounding physiological conditions and the pH shifted towards 7.4, the protein re-solubilised as indicated by the increase in the % T level. The release profile of an excipient, m-cresol, from the injection site was determined from aliquots taken from the surrounding buffer bath at different time points by HPLC following the method specified in “Biodegradation characterisation and kinetics of m-cresol by Lysinibacillus cresolivorans” in Water SA (Online) vol. 37 no. 1 Pretoria January 2011.

[2] = Diffusion through the DERMAROLLER-modified 14000 MWCO dialysis membrane; format: physicochemical; conditions: modified membrane with cut off of 14000 MWCO
Excerpt: As an example, the membrane used in the system was Biodesing dialysis tubing with a molecular weight cut off diameter of 14000 Da. A 3 cm piece of the tubing was cut and the edges were removed to form two sheets of membrane. These sheets of membrane, whilst not separated from each other, were fully hydrated by soaking in deionised water and subsequently placed on Styrofoam covered with aluminium foil. The membrane permeability was then modified using a DERMAROLLER microneedle device. The membrane used can be transparent. […] In contrast, for rhodamine (MW~500 Da) the diffusion through the same membrane took place in one phase. The holes can be made with a DERMAROLLER microneedle device, or with any other method producing size and spatial distribution of holes suitable for the application. The diameter of the holes should be between 0.1 and a 10 micrometers and the spacing between any two adjacent holes between 0.1 and 10 mm.
As an example (FIG. 4), for a series of fluorescent small organic molecules (methylene blue and rhodamine) and fluorescently labelled dextrans with molecular weights between 4 kDa and 2 MDa, the rate constant of diffusion (k, [min^−1]) through the membranes after the modification followed the equation k=−0.01362 log10 (MW of the compound)+0.06065. (R^2=0.9996)

mode of diffusion through the modified membrane [2]	Compound	time until all the excipient in the injected formulation has left the injection site [1]
	Cc1cccc(O)c1 [m-cresol]	less than 50 minutes
two phase diffusion	CN(C)c1ccc2nc3ccc(=[N+](C)C)cc-3sc2c1 [methylene blue]	
one phase	rhodamine	
